Legend:
hERG = hERG (Homo sapiens, UniProt Q12809)
mice = assay: feeding throughout pregnancy to mice; format: in vivo; conditions: 10 mg/kg/day throughout pregnancy
[1] = body weights and food consumption of aged APPswe/PS1ΔE9 mice; format: in vivo; conditions: 20-month-old APPswe/PS1ΔE9 mice, 200 ppm (10 mg/kg/day) in food, three months, measured weekly
Experimental: (§1) The APPswe/PS1ΔE9 transgenic mice have been previously characterized. The line 85 mice carry two transgenes, the mouse/human chimeric APP/Swe, linked to Swedish FAD and human PS1ΔE9. At 20 months of age both male and female transgenic mice were fed a high fat diet (Harlan Tekland, Madison, WI, USA) with and without J147 (200 ppm, 10 mg/kg/day). Treatment continued for three months and was followed by behavior testing and sacrifice of mice for tissue harvesting. […] (Data not shown).

CYP450 3A4 = CYP450 3A4 (Homo sapiens, UniProt P08684)
Chain of CYP450 3A4 (P08684 whole entry): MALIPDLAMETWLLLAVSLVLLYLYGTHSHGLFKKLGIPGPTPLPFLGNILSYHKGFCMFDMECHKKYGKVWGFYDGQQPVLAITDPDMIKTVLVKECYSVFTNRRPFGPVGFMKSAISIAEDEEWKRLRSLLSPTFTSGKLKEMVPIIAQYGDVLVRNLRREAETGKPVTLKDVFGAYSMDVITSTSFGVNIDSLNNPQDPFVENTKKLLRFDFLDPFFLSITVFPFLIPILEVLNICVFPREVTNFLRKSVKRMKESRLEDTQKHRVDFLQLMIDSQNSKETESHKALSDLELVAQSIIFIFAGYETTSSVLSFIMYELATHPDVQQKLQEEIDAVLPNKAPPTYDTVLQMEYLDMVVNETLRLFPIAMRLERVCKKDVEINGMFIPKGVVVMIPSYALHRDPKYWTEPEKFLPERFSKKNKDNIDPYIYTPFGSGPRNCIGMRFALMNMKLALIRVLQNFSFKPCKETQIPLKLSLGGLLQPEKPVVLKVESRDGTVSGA

[2] = tested on: BACE, APP, NGF, BDNF, Homer-1, Egr3, phosphorylated CREB; assay: Western blotting of hippocampal or entorhinal cortex tissue of aged huAPP/PS1 mice; format: in vivo
Experimental: as §1
(§2) Hippocampal and entorhinal cortex tissue samples were homogenized in 10 volumes of RIPA lysis buffer (50 mM Tris, pH 7.5, 150 mM NaCl, 0.1% sodium dodecyl sulfate and 0.5% deoxycholate, and 1% NP40) containing a cocktail of protease and phosphatase inhibitors ([…] each of pepstatin A, aprotinin, phosphoramidon, and leupeptin; 0.5 mM 4-(2-aminoethyl) benzenesulfonyl fluoride hydrochloride; 1 mM EGTA; 5 mM fenvalerate; and 5 mM cantharidin). Samples were sonicated (2 × 10 s) and centrifuged at 100,000 × g for 60 minutes at 4°C. Protein concentrations in the cell extracts were determined using the BCA protein assay (Pierce supplied by Thermo Fisher Scientific, Rockford, IL, USA). Equal amounts of protein were solubilized in 2.5x SDS-sample buffer, separated on 12% SDS-polyacrylamide gels, transferred to Immobulin P and immunoblotted with the antibodies indicated in the Materials section. For Western blots, protein levels were normalized to actin levels. An unpaired t test was performed to compare between two groups at a single time point. When comparing multiple groups, one-way ANOVA followed by a Tukey's post hoc test was used. All statistical analysis was conducted using GraphPad Instat software.

Aβ1-40 and Aβ1-42 = assay: Aβ ELISA of hippocampus of aged huAPP/PS1 mice; format: in vivo; conditions: three months J147
Experimental: as §1, §2
Aβ 1 to 40 and 1 to 42 levels in hippocampal lysate were analyzed using the Aβ1-40 and Aβ1-42 ELISA kits from Invitrogen (# KHB3481 and # KHB3442, respectively). All kit reagents were brought to room temperature before use. Standards were prepared according to the manufacturer's guidelines and samples were diluted as follows; RIPA fractions were diluted 1:10 for both Aβ1-40 and Aβ1-42; and RIPA insoluble fractions were diluted 1:2,000 for Aβ1-40 and 1:5,000 for Aβ1-42. A total of 50 μl of Aβ peptide standards and samples were added in duplicate to 96-well plates pre-coated with mAb to the NH2 terminus region of Aβ. Plates were incubated at 4°C overnight and then 50 μl of Hu Aβ40 or Aβ42 detection antibody was added to each well except the chromogen blanks. […] Stop solution was then added at 100 μl to each well followed by reading the absorbance of each well at 450 nm. […] The concentrations of the samples were calculated from the standard curve and multiplied by the dilution factor.

C57BL/6J mice = assay: two-day water maze, scopolamine induced memory impairment; format: in vivo; conditions: scopolamine 1 mg/kg i.p.; J147 200 ppm, donepezil 20 ppm in food for two weeks
Experimental: A total of 60 male mice aged eight weeks were housed 4 per cage and were divided into five groups with 12 mice per group. Treatments were administered in the food (TestDiet® 5015, Richmond, IN, USA) for a period of two weeks before commencement of behavioral testing. […] Following two weeks of treatment, memory impairment was induced by intraperitoneal (i.p.) injection of scopolamine (1 mg/kg) 30 minutes prior to each of the following behavioral tests: Y-maze, probe trial of the water maze and contextual and cued fear conditioning. Mice were allowed to rest for two days between each behavior test. All mice received scopolamine except for one of the control groups, which received saline as a control. Mice were sacrificed 24 hours after the last behavioral test for tissue harvesting.
Spatial memory was determined using the two-day water maze in 23-month-old huAPPswe/PS1 transgenic mice fed J147 at 200 ppm in food for the previous three months. The protocol was adapted from a publication by Gulinello and colleagues. Water temperature remained at 27°C throughout the experiment. […] The time it took each mouse to find the hidden platform was measured as escape latency. […] All trials were recorded using the EthoVision Software and statistics were computed using GraphPad Instat software (GraphPad Software, San Diego, CA, USA).

normal rodents = tested on: normal rodents; parameters: method as in PMID 22194796; conditions: cited from earlier work
neuroprotection assays = tested on: neuroprotection assays; parameters: method as in PMID 22194796; conditions: cited from earlier work
MDRI-MDCK = conditions: MDCK-MDR1
[3] = hippocampus, vs control huAPP/PS1 mice

Chain of hERG (Q12809 whole entry): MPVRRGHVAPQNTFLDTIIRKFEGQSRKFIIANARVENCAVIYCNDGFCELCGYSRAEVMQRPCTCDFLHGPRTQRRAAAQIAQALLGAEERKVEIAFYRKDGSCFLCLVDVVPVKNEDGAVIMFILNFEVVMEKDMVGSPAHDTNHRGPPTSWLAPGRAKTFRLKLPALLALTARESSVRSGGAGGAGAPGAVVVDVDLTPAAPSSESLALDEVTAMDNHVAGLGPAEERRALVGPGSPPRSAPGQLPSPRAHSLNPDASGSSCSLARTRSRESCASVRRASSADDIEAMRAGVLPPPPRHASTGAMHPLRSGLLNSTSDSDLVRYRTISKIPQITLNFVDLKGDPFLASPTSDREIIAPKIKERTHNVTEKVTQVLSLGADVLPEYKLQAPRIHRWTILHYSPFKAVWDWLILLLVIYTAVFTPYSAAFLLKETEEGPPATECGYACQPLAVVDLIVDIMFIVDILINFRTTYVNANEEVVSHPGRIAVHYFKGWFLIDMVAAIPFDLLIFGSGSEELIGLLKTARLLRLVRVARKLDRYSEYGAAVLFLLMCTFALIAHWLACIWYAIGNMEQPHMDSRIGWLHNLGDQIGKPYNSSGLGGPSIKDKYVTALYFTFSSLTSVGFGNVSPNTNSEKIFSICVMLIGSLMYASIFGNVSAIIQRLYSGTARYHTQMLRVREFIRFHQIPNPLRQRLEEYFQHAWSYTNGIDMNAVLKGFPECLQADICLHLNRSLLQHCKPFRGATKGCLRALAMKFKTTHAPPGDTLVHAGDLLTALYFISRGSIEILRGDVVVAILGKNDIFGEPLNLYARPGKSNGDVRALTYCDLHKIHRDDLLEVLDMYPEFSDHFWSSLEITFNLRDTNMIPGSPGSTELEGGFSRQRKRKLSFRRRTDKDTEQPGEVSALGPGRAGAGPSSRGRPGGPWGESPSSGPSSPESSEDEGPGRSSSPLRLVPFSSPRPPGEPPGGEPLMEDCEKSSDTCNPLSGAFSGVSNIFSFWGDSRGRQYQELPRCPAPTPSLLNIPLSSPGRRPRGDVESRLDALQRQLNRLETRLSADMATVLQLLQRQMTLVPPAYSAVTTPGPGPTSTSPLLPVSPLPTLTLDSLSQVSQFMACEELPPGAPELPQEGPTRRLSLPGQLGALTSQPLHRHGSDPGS

Question: For `COc1cccc(/C=N/N(C(=O)C(F)(F)F)c2ccc(C)cc2C)c1` [J147, (E)-N-(2,4-dimethylphenyl)-2,2,2-trifluoro-N'-(3methoxybenzyli-dene) acetohydrazide], which hERG assay (hERG) is on record?
Answer: negative

Question: What about the “offspring after feeding throughout pregnancy” value (mice) of the same molecule?
Answer: normal

Question: What about the “mouse body weights and food consumption” value [1] of the same molecule?
Answer: no significant differences between the groups

Question: And the “CYP450 3A4 assays (CYP450 inhibition)” value (CYP450 3A4)?
Answer: negative

Question: And the “protein level of β-secretase (BACE)” value ([2]; RIPA soluble fraction, hippocampus, vs untreated AD mice)?
Answer: significantly reduced

Question: What about the “phosphorylated CREB” value ([2]; entorhinal cortex) of the same molecule?
Answer: significantly increased

Question: And the “mature BDNF protein level” value ([2]; hippocampus)?
Answer: increase

Question: And the proBDNF protein level ([2]; hippocampus)?
Answer: increase

Question: And the “ratio of pro- to mature BDNF” value ([2]; hippocampus)?
Answer: decreased

Question: And the “ratio of proNGF to mature NGF” value ([2]; hippocampus)?
Answer: decreased significantly

Question: And the Egr3 level ([2]; hippocampus, aged AD mice)?
Answer: significantly increased

Question: And the Homer-1 levels ([2]; hippocampus, aged AD mice)?
Answer: significantly increased

Question: What about the “mature NGF level” value [2, 3] of the same molecule?
Answer: increases

Question: What about the proNGF level [2, 3] of the same molecule?
Answer: increases

Question: And the APP protein levels ([2]; soluble fractions of hippocampus, vs control AD mice)?
Answer: significantly increased

Question: And the “Aβ1-40 levels, RIPA insoluble fraction” value (Aβ1-40 and Aβ1-42)?
Answer: reduced

Question: And the “Aβ1-42 levels, RIPA insoluble fraction” value (Aβ1-40 and Aβ1-42)?
Answer: not altered

Question: And the “RIPA soluble Aβ1-40” value (Aβ1-40 and Aβ1-42)?
Answer: decreased

Question: And the “RIPA soluble Aβ1-42” value (Aβ1-40 and Aβ1-42)?
Answer: decreased

Question: And the “spatial memory (time to find hidden platform)” value (C57BL/6J mice)?
Answer: rescued this deficit in spatial memory

Question: What about the “memory in normal rodents” value (normal rodents) of the same molecule?
Answer: facilitates memory in normal rodents

Question: And the EC50 (neuroprotection assays)?
Answer: < 100 nM

Question: And the “MDRI-MDCK brain transport rates classification (BBB penetration)” value (MDRI-MDCK)?
Answer: High

From article PMC3706879, “The neurotrophic compound J147 reverses cognitive impairment in aged Alzheimer's disease mice” (Alzheimer's Research & Therapy, 2013)
